From US12617794B2, “GABAA positive allosteric modulator compounds, methods of making, and uses thereof” (NEUROCYCLE THERAPEUTICS, INC., priority 2019, dated 2026)
Like-named read-outs stand apart in the source and are kept apart here.

How the values were obtained:
[1] = One week accelerated stability testing (Example 3); assay type: physicochemical
Description: The stability of Phosphate Polymorphic Form A and Free Base Polymorphic Form A were evaluated under accelerated conditions.

[2] = Solubility in aqueous buffers, SGF, FaSSIF and FeSSIF (Example 15); assay type: physicochemical; details: for solubility thermodynamic: 20 °C, thermodynamic from solid, read-out: Measured Conc.; for solubility thermodynamic / Measured Conc. (μg/mL): ~20-25° C., ~24 hours
Description: About 2 mg of test article was added to a 1.5 mL vials which contained ˜1.0 mL of one medium listed in Table 7 and Table 8, which was then sealed. The mixtures were stirred at ˜20-25° C. for ˜24 hours. After that, the mixture was filtered by 0.45 μm filter membrane and then the supernatant was analyzed by HPLC.

[3] = Pharmacokinetics in rats (Example 17); assay type: in vivo, Sprague-dawley rats; details: rat, PO 2 mg/kg, mean
Description: To evaluate the pharmacokinetics (PK) of Phosphate Polymorphic Form A, suspensions or solutions were dosed by either oral gavage (0.5% methyl cellulose) or IV (60% PEG400/40% saline) in normal, healthy, male Sprague-dawley rats with serial blood collection focused on the first 48 hours of exposure. Rats were dosed with vehicle or test compounds at 1 mg/kg (IV) or 2 mg/kg (PO). Approximately 0.2 mL blood was collected at each time point. All blood samples were collected jugular vein puncture. All blood samples were transferred into plastic microcentrifuge tubes containing 5 μL of EDTA-K2 as anti-coagulant or pre-chilled commercial EDTA-K2 tubes and placed on wet ice until centrifugation. Harvested blood samples were centrifuged within 30 min of collection at 7,000 rpm for 10 minutes. The extracts were analyzed for compound concentration by LC/MS/MS. Data were analyzed with Phoenix WinNonlin 6.3 using the IV-Noncompartmental model 201 (IV bolus input) and PO-Noncompartmental model 200 (extravascular input) methods.

[4] = Intrinsic dissolution rate in SGF (Example 16); assay type: physicochemical; details: 37° C., 100 rpm, linear scope within 2 to 120 min
Description: About 100 mg of Free Base Polymorphic Form A or Phosphate Polymorphic Form A was weighed into the intrinsic dissolution apparatus and the sample compressed for 1 minute with a compression force of ˜4 MPa to form a compacted pellet within the stainless-steel die. All loose powder was removed from the surface of the die. The intrinsic dissolution shaft was connected with the stainless-steel die and tightened so only one surface of the pellet was exposed (surface area=0.496 cm^2). The shaft in the spindle was adjusted to ensure the exposed surface of the compacted tablet was ˜3.8 cm from the bottom of the vessel when lowered. The temperature of chamber water was set at 37° C.±0.5° C., the shaft rotation at 100 rpm and the sampling time points at 2, 5, 10, 15, 30, 45, 60, 120 min. SGF was used as dissolution medium (900 mL). At each time point, solution samples were filtered, and the supernatant was analyzed by HPLC-UV.

[5] = Solid-state stability of Phosphate Form A at 40° C./75% RH and 25° C./95% RH (Example 36); assay type: physicochemical; details: up to two weeks
[6] = Approximate solubility study of TPA023B phosphate (Example 25); assay type: physicochemical; details: RT, listed as TPA023B phosphate
Description: The total amount of solvent was recorded to calculate the approximate solubility in these solvents.

[7] = Polymer induced crystallization (Example 67); assay type: physicochemical; details: evaporative crystallization at RT, ~10% polymer
Description: Then ˜10% of polymer was added into clear solution. The mixture was evaporated to dryness at RT. The solid was isolated and characterized.
No new phosphate form was obtained.

SMILES: CC(C)(O)c1cnn2c(-c3ccc(F)c(-c4c(F)cccc4C#N)c3)cnc2n1 [Phosphate Polymorphic Form A, 2′,6-difluoro-5′-[3-(1-hydroxy-1-methylethyl)-imidazo[1,2-b][1,2,4]triazin-7-yl]biphenyl-2-carbonitrile]
- Assay (%) ([1]; 40° C./75% RH (open), 1 week): 97.12%
- Purity (%) ([1]; 40° C./75% RH (open), 1 week): 99.02%
- Assay (%) ([1]; 80° C. (open), 1 week): 95.99%
- Purity (%) ([1]; 80° C. (open), 1 week): 98.94%
- Purity (%) ([1]; Initial): 98.91%
- Assay (%) ([1]; Initial, assay criterion 95%-105%): 104.60%
- Assay (%) ([1]; Light, ~50 h): 95.25%
- Purity (%) ([1]; Light, ~50 h): 97.55%
- solubility thermodynamic ([2]; FaSSIF, fassif, FaSSIF): 7.14 µg/mL
- solubility thermodynamic ([2]; FeSSIF, fessif, FeSSIF): 50.7 µg/mL
- solubility thermodynamic ([2]; SGF, simulated gastric fluid, SGF): 3.85 µg/mL
- solubility thermodynamic ([2]; citrate buffer, pH 3, aqueous buffer, pH 3.0 citrate buffer (100 mM), LOQ: 0.1 μg/mL): 0.16 µg/mL
- solubility compared with Free Base Polymorphic Form A ([2]; in SGF, FaSSIF and FeSSIF): higher solubility
- Measured Conc. (μg/mL) ([2]; pH 4.5 citrate buffer (100 mM), LOQ: 0.1 μg/mL): <LOQ
- Measured Conc. (μg/mL) ([2]; pH 7.4 PBS (50 mM), LOQ: 0.1 μg/mL): <LOQ
- Measured Conc. (μg/mL) ([2]; pH 9.0 USP Buffer (50 mM), LOQ: 0.1 μg/mL): <LOQ
- AUCExtra (%) [3]: 6.25%
- intrinsic dissolution rate [4]: 0.184 mg·cm^−2min^−1
- crystal form after storage ([5]; 25° C./95% RH): remained unchanged
- crystal form after storage ([5]; 40° C./75% RH): remained unchanged
- Solubility (mg/mL) ([6]; DMF): relatively high solubility
- Solubility (mg/mL) ([6]; DMSO): relatively high solubility
- Result (solid form obtained) ([7]; solvent MEK, polymer EC (Ethyl cellulose)): Phosphate Form A
- Result (solid form obtained) ([7]; solvent MEK, polymer PAA Poly(acrylic acid)): Phosphate Form A
- Result (solid form obtained) ([7]; solvent MEK, polymer PEG4000, listed as Phosphate Form A): Free Base Form F
- Result (solid form obtained) ([7]; solvent MEK, polymer PVP-K30 (Polyvinyl pyrrolidone), listed as Phosphate Form A): Free Base Form F
- Result (solid form obtained) ([7]; solvent THF, polymer EC): Phosphate Form A
- Result (solid form obtained) ([7]; solvent THF, polymer PAA Poly): Phosphate Form A
- Result (solid form obtained) ([7]; solvent THF, polymer PEG4000): Phosphate Form A
- Result (solid form obtained) ([7]; solvent THF, polymer PVP-K30): Phosphate Form 1A
